In US20230147021A1, “POLYSULFIDE STABILIZATION” (University Public Corporation Osaka, priority 2020, published 2023):
Values belong to the compound of their own block, whether it stands above or below them.

Experiments:
[1] = GS-SS-SG protection effect of N-iodoacetyl tyrosine; type: physicochemical; conditions: compared with TME-IAM; FIG. 13
Excerpt: Incidentally, N-iodoacetyl tyrosine is expressed with the following chemical formula.

[2] = reactivity of alkylating agents with cysteine (LC-MS/MS of residual cysteine and cysteine adducts); type: physicochemical; conditions: 1 mM alkylating agent, 0.1 mM cysteine, phosphate buffer pH 7.5, 37° C., 1, 3 and 8 hours; FIG. 5
Description: Next, the reactivity between the tyrosine derivative according to the present invention and the active sulfur species was examined.
The following were mixed: 50 μL of 200 mM phosphate buffer (pH 7.5) (final concentration: 50 mM), 2 μL of 100 mM alkylating agent (TME-IAM, TEE-IAM, NAT-IAM, HPE-IAM) or DMSO (final concentration: 1 mM), 2 μL of 10 mM cysteine (final concentration: 0.1 mM), and 146 μL of ultrapure water, and the mixture was incubated at 37° C. while shielding light. One, 3, and 8 hours after the start of the reaction, 10 μL of the reaction solution and 90 μL of 0.1% formic acid were mixed, thereby terminating the reaction. By performing the LC-MS/MS by using unreacted 10 μM cysteine as standard, a residual amount of the cysteine in the reaction solution was analyzed and the generation of cysteine adducts by various kinds of alkylating agents was analyzed.

[3] = reaction mole ratio (processing concentration) influence test for the GS-SS-SG protection effect; type: physicochemical; conditions: 400-fold higher concentration than GS-SS-SG (10 μM), pH 7.0, 37° C., one hour; FIG. 8
Description: In order to detect the active sulfur molecules with high sensitivity, it is important to form a stable derivative. In order to do so, it is necessary to add a high-concentration alkylating agent to a specimen; and it is known that the addition of the high-concentration alkylating agent promotes the decomposition of the active sulfur molecules (NPL 1). So, processing concentration dependency of the active sulfur molecules stabilization activity of TME-IAM was analyzed by using the active sulfur molecules GS-SS-SG.
(§1) The following were mixed: 50 μL of 200 mM phosphate buffer (pH 7.0) (final concentration: 100 mM) and 5-20 μL of a TME-IAM solution (final concentration: 0.25, 0.5, 1, 2, 4 mM), 10 μL of 100 μM GS-SS-SG (final concentration: 10 μM), and 20-35 μL of ultrapure water; and the mixture was incubated at 37° C. while shielding light. One hour after the start of the reaction, 10 μL of the reaction solution and 90 μL of 0.1% formic acid were mixed, thereby terminating the reaction. By performing the LC-MS/MS analysis by using unreacted 1 μM GS-SS-SG as standard, a residual amount of GS-SS-SG in the reaction solution was analyzed.

[4] = reactivity with cysteine hydropolysulfide, adducts by LC-ESI-MS/MS; type: physicochemical; conditions: 1 mM agent, one hour at 37° C., CysS-(S)n—H from 100 μM cystine and 300 μM Na2S2; FIG. 10
Description: The reactivity of TME-IAM with respect to cysteine hydropolysulfide [CysS-(S)n—H] was verified as compared to HPE-IAM as indicated below.
CysSSH/CysS-(S)n—H which was prepared by incubating 100 μM cystine and 300 μM Na2S2 for 5 minutes at 37° C. was made to react with TME-IAM or HPE-IAM (1 mM each) for one hour at 37° C.
Next, its reaction mixture was provided to the LC-ESI-MS/MS analysis and respective adducts for CysSH/CysS-(S)n—H and HS^− (bis-S-adduct) were detected.
Incidentally, the concentration of each compound as sulfur is calculated according to the following formula: a concentration as sulfur=a concentration as the compound×the number of sulfur atoms in the compound (for example, in a case of CysSSH, the concentration as sulfur=2×[CysSSH]). Referring to FIG. 10, the concentrations of each adduct as the compound and sulfur are indicated as a bar with slanted stripes and a bar without stripes, respectively.

[5] = tested on: HEK (human embryonic kidney) 293T cells; test: cell permeability and esterase sensitivity in HEK 293T cells; type: cell-based; conditions: 1 mM TME-IAM, one hour at 37° C., FIG. 11A
Description: (§2) The following test was conducted with regard to cell permeability and esterase sensitivity of TME-IAM. FIG. 11 illustrates representative mass chromatographs of (A) HEK (human embryonic kidney) 293T cells and (B) mice liver homogenate which were processed with TME-IAM.
(§3) After processing the HEK 293T cells for one hour at 37° C. by using 1 mM TME-IAM, they were homogenized by ultrasonication in 80% methanol. The mice liver tissues were also homogenized by ultrasonication in 80% methanol containing 1 mM TME-IAM and were incubated for one hour at 37° C. After centrifugal separation of each of them, the obtained supernatant was collected and then diluted to 10 times by using 0.1% FA (formic acid).
(§4) Next, the mixture was made to undergo the LC-ESI-MS/MS analysis and individual by-products driving from TME-IAM, its glutathione adduct (GS-AM-TME), and esterase dependency cleavage were detected. They are Tyr-IAM ((2-iodoacetyl)-I-tyrosine) and GS-AM-Tyr (GSH adduct of (2-iodoacetyl)-1-tyrosine), respectively.

[6] = reactivity with hydrogen sulfide (Na2S), adducts by LC-ESI-MS/MS; type: physicochemical; conditions: 0.1 mM or 1 mM agent, 0.1 mM Na2S, one hour at 37° C.; FIG. 12
Description: The incubation of 0.1 mM or 1 mM TME-IAM (right side in FIG. 12) or MBB (left side in FIG. 12) was performed for one hour at 37° C. under the existence of 0.1 mM Na2S. As a result, the HS-adduct and the bis-S-adduct in the reaction mixture were respectively detected by the LC-ESI-MS/MS analysis.
The reaction mixture was separated by the Alliance e2695 system equipped with a YMC-Triart C18 column (inside diameter. 50×2.0 mm) and was then eluted with a linear gradient (30-99% for 5 minutes) by using methanol as a mobile phase under the existence of 0.1% FA (formic acid) at a flow speed of 0.3 mL/min at 40° C.

[7] = pH influence test for the GS-SS-SG protection effect; type: physicochemical; conditions: one hour, FIG. 7
Description: Next, the pH influence of the GS-SS-SG protection effect of TME-IAM was evaluated. It has been clarified that the active sulfur molecules GS-SS-SG are stable under acid conditions, while they are very unstable under alkali conditions.
as §1, with “(pH 7.0, 7.5, 8.0)” for “(pH 7.0)”, “and 5” for “and 5-20”, “of 20 mM” for “of a”, “concentration: 1” for “concentration: 0.25, 0.5, 1, 2, 4”, “and 35” for “and 20-35”

[8] = stabilization of oxidized glutathione polysulfides with different numbers of sulfur atoms; type: physicochemical; conditions: 1 mM TME-IAM, 10 μM GS-SSS-SG, pH 7.0, 37° C., 30 minutes after the processing; FIG. 9
Description: It has been made clear that compounds with different quantities of sulfur atoms included in the molecules exist in the active sulfur molecules. In general, the compound including a larger number of sulfur atoms has higher reactivity and has unstable molecules. So, the active sulfur molecules stabilization effect of TME-IAM was analyzed by using the active sulfur molecules with different quantities of the contained sulfur atoms. For this analysis, oxidized glutathione pentasulfide (GS-SSS-SG) and oxidized glutathione trisulfide (GS-S-SG) were used in addition to GS-SS-SG.
The following were mixed: 50 μL of 200 mM phosphate buffer (pH 7.0) (final concentration: 100 mM) and 5 μL of […] TME-IAM solution (final concentration: 1 mM), 10 μL of 100 μM oxidized form glutathione polysulfide (GS-SSS-SG, GS-SS-SG, GS-S-SG) (final concentration: 10 μM), and 35 μL of ultrapure water; and the mixture was incubated at 37° C. while shielding light. […] By performing the LC-MS/MS analysis by using each unreacted 1 μM oxidized form glutathione polysulfide (GS-SSS-SG, GS-SS-SG, GS-S-SG) as standard, a residual amount of the oxidized form glutathione polysulfide GS-SSS-SG, GS-SS-SG, GS-S-SG) in the reaction solution was analyzed.

[9] = esterase-dependent by-product formation in mice liver homogenate in 80% methanol; type: in vitro ADME; conditions: mice liver tissues homogenized in 80% methanol containing 1 mM TME-IAM, one hour at 37° C.; FIG. 11B
Description: as §2, §3, §4
Accordingly, in order to evaluate the possibility of forming these derivatives when in vivo samples are used for the reactivity sulfur metabolome analysis, mice liver tissues were prepared in 80% methanol containing 1 mM TME-IAM, homogenized, and incubated for one hour at 37° C., and the obtained samples were analyzed by LC-ESI-MS/MS.

[10] = stabilization test for active sulfur molecules (residual GS-SS-SG by LC-MS/MS); type: physicochemical; conditions: 1 mM alkylating agent, 10 μM GS-SS-SG, pH 7.0, 37° C., FIG. 6; for active sulfur molecules stabilization (inhibition of GS-SS-SG autolysis): up to 4 hours
Description: Next, the stabilization effect of active sulfur molecules of each alkylating agent containing the new tyrosine derivative was evaluated. Oxidized glutathione tetrasulfide (GS-SS-SG) was used as a model compound for the active sulfur molecules.
The following were mixed: 50 μL of 200 mM phosphate buffer (pH 7.0) (final concentration: 100 mM), 5 μL of 20 mM alkylating agent (TME-IAM, HPE-IAM, MBB, IAM) or DMSO (final concentration: 1 mM), 10 μL of 100 μM GS-SS-SG (final concentration: 10 μM), and 35 μL of ultrapure water; and the mixture was incubated at 37° C. while shielding light. One, 2, 3, and 4 hours after the start of the reaction, 10 μL of the reaction solution and 90 μL of 0.1% formic acid were mixed, thereby terminating the reaction. By performing the LC-MS/MS by using unreacted 1 μM GS-SS-SG as standard, a residual amount of the GS-SS-SG in the reaction solution was analyzed.

[11] = 37° C., neutral pH (pH 7.0); stated as known; cited from earlier work

SMILES: O=C(CI)N[C@@H](Cc1ccc(O)cc1)C(=O)O [N-iodoacetyl tyrosine]
GS-SS-SG protection effect [1]: same level of the GS-SS-SG protection effect as that of TME-IAM

SMILES: CCOC(=O)C(Cc1ccc(O)cc1)NC(=O)CI (stereo not drawn) [TEE-IAM]
reactivity with the thiol group (cysteine) [2]: lower reactivity with cysteine than that of TME-IAM and HPE-IAM

cell permeability [5]: can permeate through cell membranes | esterase-dependent by-product Tyr-IAM in samples [9]: rarely detected
SMILES: COC(=O)[C@H](Cc1ccc(O)cc1)NC(=O)CI [TME-IAM, N-iodoacetyl tyrosine methyl ester]
reduction of GS-SS-SG at high alkylating agent concentration [3]: any significant reduction of GSSSSG was not observed | amounts of CysSSH and CysSSSH detected [4]: significantly larger than those detected by using HPE-IAM | reactivity with hydrogen sulfide [6]: react with hydrogen sulfide and form the bis-S-adduct | GS-SS-SG remained ([7]; 1 mM TME-IAM, 10 μM GS-SS-SG, weakly alkaline solution (pH 8.0), 37° C.): approximately 70% | GS-SS-SG remaining compared with HPE-IAM ([7]; pH 8.0, 37° C.): higher value than that of the system to which the publicly known iodoacetamide derivative HPE-IAM was added | decomposition suppression of GS-SSS-SG [8]: predominant decomposition suppression | reactivity with the thiol group (cysteine) [2]: same level of reactivity with the thiol group (cysteine) as that of HPE-IAM | GS-SS-SG remained ([10]; incubation for 4 hours): approximately 80% | active sulfur molecules stabilization (inhibition of GS-SS-SG autolysis) [10]: high active sulfur molecules stabilization activity

active sulfur molecules stabilization (inhibition of GS-SS-SG autolysis) [10]: inhibited significantly
SMILES: O=C(CI)NCCc1ccc(O)cc1 [HPE-IAM, f-(4-hydroxyphenyl) ethyl iodoacetamide, reference compound]
amount of HS− (bis-S adduct) decomposition product [4]: prominently higher than the amount of the product detected by using TME-IAM

SMILES: CC(=O)NC(Cc1ccc(O)cc1)C(=O)NC(=O)CI (stereo not drawn) [NAT-IAM]
reactivity with the thiol group (cysteine) [2]: lower reactivity with cysteine than that of TME-IAM and HPE-IAM

SMILES: Cc1c(C)n2c(CBr)c(C)c(=O)n2c1=O [MBB, monobromobimane, reference compound]
reactivity with hydrogen sulfide [6]: react with hydrogen sulfide and form the bis-S-adduct | effect on decomposition of GS-SS-SG [11]: decomposition is promoted
